From patent US20220386606A1, “SPECIFICALLY SUBSTITUTED 3-PHENYL-5-SPIROCYCLOPENTYL-3-PYRROLIN-2-ONES AND THEIR USE AS HERBICIDES” (Bayer Aktiengesellschaft, priority 2019, published 2022)

Columns and labels:
[1] = system: SETVI; test: Post-emergence herbicidal action against SETVI; format: in vivo, Setaria viridis; settings: 80 g/ha, visual assessment about 3 weeks after treatment vs untreated controls
Summary of the method: (§1)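 Plants at the one-leaf stage receive a foliar spray of the formulated compound, with a 600 to 800 l/ha water rate and 0.2% wetting agent. Percent activity is judged by eye after roughly 3 weeks in the greenhouse.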

[2] = system: AVEFA; test: Post-emergence herbicidal action against AVEFA; format: in vivo, Avena fatua; settings: 80 g/ha, visual assessment after about 3 weeks
Summary of the method: as §1

[3] = system: ECHCG; test: Post-emergence herbicidal action against ECHCG; format: in vivo, Echinochloa crus-galli; settings: 80 g/ha, visual assessment about 3 weeks after treatment vs untreated controls
Summary of the method: as §1

[4] = system: DIGSA; test: Post-emergence herbicidal action against DIGSA; format: in vivo, Digitaria sanguinalis; settings: 80 g/ha, visual assessment about 3 weeks after treatment vs untreated controls
Summary of the method: as §1

[5] = system: ABUTH; test: Post-emergence herbicidal action against ABUTH; format: in vivo, Abutylon threophrasti; settings: 80 g/ha, visual assessment about 3 weeks after treatment vs untreated controls
Method: (§2) Seeds of monocotyledonous and dicotyledonous weed and crop plants are laid out in sandy loam soil in wood-fiber pots, covered with soil and cultivated in a greenhouse under good growth conditions. 2 to 3 weeks after sowing, the test plants are treated at the one-leaf stage. The compounds of the invention, formulated in the form of wettable powders (WP) or as emulsion concentrates (EC), are then sprayed onto the green parts of the plants as aqueous suspension or emulsion at a water application rate equating to 600 to 800 l/ha with addition of 0.2% wetting agent. After the test plants have been left to stand in the greenhouse under optimal growth conditions for about 3 weeks, the action of the preparations is assessed visually in comparison to untreated controls (herbicidal action in percent (%): 100% activity=the plants have died, 0% activity=like control plants).

[6] = system: ALOMY; test: Post-emergence herbicidal action against ALOMY; format: in vivo, Alopecurus myosuroides; settings: 80 g/ha, visual assessment after about 3 weeks
Summary of the method: as §1

[7] = system: HORMU; test: Post-emergence herbicidal action against HORMU; format: in vivo, Hordeum murinum; settings: 80 g/ha, visual assessment about 3 weeks after treatment vs untreated controls
Method: as §2

[8] = system: LOLRI; test: Post-emergence herbicidal action against LOLRI; format: in vivo, Lolium rigidum; settings: 80 g/ha, visual assessment about 3 weeks after treatment vs untreated controls
Summary of the method: as §1

SMILES | Post-emergence action against SETVI in % [1] [%] | Post-emergence action against AVEFA in % [2] [%] | Post-emergence action against ECHCG in % [3] [%] | Post-emergence action against DIGSA in % [4] [%] | Post-emergence action against ABUTH in % [5] [%] | Post-emergence action against ALOMY in % [6] [%] | Post-emergence action against HORMU in % [7] [%] | Post-emergence action against LOLRI in % [8] [%]
CC#Cc1cc(C)c(C2=C(O)C3(CCC(COC)C3)NC2=O)c(Cl)c1 (centres unmarked) [Example I-06] | 100 | 100 | 100 | 100 | 80 | 100 | 100 | 100
CC#Cc1cc(C)c(C2=C(O)C3(CCC(COC)C3)NC2=O)c(Cl)c1 (centres unmarked) [Example I-12] | 100 | 100 | 100 | 100 | 90 | 100 | 100 | 100
CC#Cc1cc(Cl)c(C2=C(O)C3(CCC(COC)C3)NC2=O)c(CC)c1 (centres unmarked) [Example I-16] | 100 | 100 | 100 | 100 |  | 100 | 100 | 100
C#Cc1cc(Cl)c(C2=C(OC(=O)OCC)C3(CCC(COC)C3)NC2=O)c(OC)c1 (centres unmarked) [Example P-02] | 100 | 100 | 100 | 100 |  | 100 | 100 | 100
CC#Cc1cc(C)c(C2=C(OC(=O)C(C)C)C3(CCC(COCC)C3)NC2=O)c(Cl)c1 (centres unmarked) [Example P-03] | 100 | 100 | 100 | 100 | 80 | 100 | 100 | 100
CC#Cc1cc(Cl)c(C2=C(OC(=O)OCC)C3(CCC(COC)C3)NC2=O)c(CC)c1 (centres unmarked) [Example P-06] | 100 | 100 | 100 | 100 |  | 100 | 100 | 100
CC#Cc1cc(Cl)c(C2=C(OC(=O)C(C)C)C3(CCC(COCC)C3)NC2=O)c(CC)c1 (centres unmarked) [Example P-07] | 100 | 100 | 100 | 100 |  | 100 | 100 | 100
CC#Cc1cc(C)c(C2=C(OC(=O)OCC)C3(CCC(COCC)C3)NC2=O)c(Cl)c1 (centres unmarked) [Example P-09] | 100 | 100 | 100 | 100 |  | 100 | 100 | 100
CC#Cc1cc(Cl)c(C2=C(OC(=O)C(C)C)C3(CCC(COCC)C3)NC2=O)c(CC)c1 (centres unmarked) [Example P-12] | 100 | 100 | 100 | 100 |  | 100 | 100 | 100
CC#Cc1cc(Cl)c(C2=C(OC(=O)C(C)C)C3(CCC(COC)C3)NC2=O)c(CC)c1 (centres unmarked) [Example P-14] | 100 | 100 | 100 | 100 | 90 | 100 | 100 | 100
CC#Cc1cc(Cl)c(C2=C(OC(=O)OCC)C3(CCC(COC)C3)NC2=O)c(CC)c1 (centres unmarked) [Example P-15] | 100 | 100 | 100 | 100 |  | 100 | 100 | 100
C#Cc1cc(Cl)c(C2=C(OC(=O)OCC)C3(CCC(COC)C3)NC2=O)c(OC)c1 (centres unmarked) [Example P-19] | 100 | 100 | 100 | 90 |  | 80 | 100 | 100
CC#Cc1cc(Cl)c(C2=C(OC(=O)OCC)C3(CCC(COCC)C3)NC2=O)c(CC)c1 (centres unmarked) [Example P-20] | 100 | 100 | 100 | 100 |  | 100 | 100 | 100
CC#Cc1cc(Cl)c(C2=C(OC(=O)C(C)C)C3(CCC(COC)C3)NC2=O)c(CC)c1 (centres unmarked) [Example P-22] | 100 | 100 | 100 | 100 |  | 100 | 100 | 100
CC#Cc1cc(C)c(C2=C(OC(=O)OCC)C3(CCC(COC)C3)NC2=O)c(Cl)c1 (centres unmarked) [Example P-24] | 100 | 100 | 100 | 100 |  | 100 | 100 | 100
CC#Cc1cc(Cl)c(C2=C(OC(=O)C(C)C)C3(CCC(COCC)C3)NC2=O)c(OC)c1 (centres unmarked) [Example P-25] | 100 | 100 | 100 | 100 | 90 | 100 | 100 | 100
CC#Cc1cc(Cl)c(C2=C(OC(=O)OCC)C3(CCC(COCC)C3)NC2=O)c(OC)c1 (centres unmarked) [Example P-26] | 100 | 100 | 100 | 100 | 80 | 100 | 100 | 100
